Drawing on article PMC5051273 (Phytotherapy research : PTR, 2015), this text covers IC50 for one molecule.

For this experiment, the target named is mammalian target of rapamycin (mTOR) (Homo sapiens, UniProt P42345). Nature of the experiment: Invitrogen Z'-LYTE kinase assay, five concentrations. The format is biochemical.

Structures are written as SMILES.

For the molecule `C/C=C(/C=O)[C@@H](CC=O)CC(=O)OCCc1ccc(O)cc1` [oleocanthal], the IC50 is 708 nM.

Broadly, the IC50 is the concentration that inhibits the measured activity by half. Low readings indicate greater potency in that assay, high ones weaker potency in that assay.
